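Cells were grown in 96-well plates and exposed to each compound for 48 hours at five concentrations; endpoints were interpolated linearly between bracketing concentrations, or set to the highest concentration if not reached. Definition used: TGI = concentration required for complete inhibition of growth.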
Columns and labels:
Assay in all cases: NCI tumour cell line growth inhibition, 48 h
OVCAR-3 ovarian = tested on: OVCAR-3 ovarian
HL-60(TB) leukemia = tested on: HL-60(TB) leukemia
IGROV1 ovarian = tested on: IGROV1 ovarian
CAKI-1 renal = tested on: CAKI-1 renal
MOLT-4 leukemia = tested on: MOLT-4 leukemia
RPMI-8226 leukemia = tested on: RPMI-8226 leukemia
HCT-116 colon = tested on: HCT-116 colon
NCI-H460 lung = tested on: NCI-H460 lung
A498 renal = tested on: A498 renal
UO-31 renal = tested on: UO-31 renal
MCF7 breast = tested on: MCF7 breast
LOX IMVI melanoma = tested on: LOX IMVI melanoma
NCI-H522 lung = tested on: NCI-H522 lung
KM12 colon = tested on: KM12 colon
SF-268 CNS = tested on: SF-268 CNS
SF-295 CNS = tested on: SF-295 CNS
OVCAR-4 ovarian = tested on: OVCAR-4 ovarian
SF-539 CNS = tested on: SF-539 CNS
786-0 renal = tested on: 786-0 renal
HCT-15 colon = tested on: HCT-15 colon
HCC-2998 colon = tested on: HCC-2998 colon
SK-OV-3 ovarian = tested on: SK-OV-3 ovarian
CCRF-CEM leukemia = tested on: CCRF-CEM leukemia
MALME-3M melanoma = tested on: MALME-3M melanoma
SW-620 colon = tested on: SW-620 colon
MDA-N = tested on: MDA-N
OVCAR-8 ovarian = tested on: OVCAR-8 ovarian
K-562 leukemia = tested on: K-562 leukemia
TK-10 renal = tested on: TK-10 renal
NCI-H23 lung = tested on: NCI-H23 lung
EKVX NSCLC = tested on: EKVX NSCLC
T-47D breast = tested on: T-47D breast
HS 578T breast = tested on: HS 578T breast
ACHN renal = tested on: ACHN renal
UACC-62 melanoma = tested on: UACC-62 melanoma
A549 NSCLC = tested on: A549 NSCLC
SN12C renal = tested on: SN12C renal
U251 CNS = tested on: U251 CNS
SK-MEL-2 melanoma = tested on: SK-MEL-2 melanoma
UACC-257 melanoma = tested on: UACC-257 melanoma
DU-145 prostate = tested on: DU-145 prostate
HOP-92 NSCLC = tested on: HOP-92 NSCLC
M14 melanoma = tested on: M14 melanoma
OVCAR-5 ovarian = tested on: OVCAR-5 ovarian
SR leukemia = tested on: SR leukemia
SNB-19 CNS = tested on: SNB-19 CNS
SK-MEL-28 melanoma = tested on: SK-MEL-28 melanoma
MDA-MB-231 breast = tested on: MDA-MB-231 breast
COLO 205 colon = tested on: COLO 205 colon
NCI/ADR-RES ovarian = tested on: NCI/ADR-RES ovarian
NCI-H226 lung = tested on: NCI-H226 lung
MDA-MB-435 = tested on: MDA-MB-435
HT29 colon = tested on: HT29 colon
PC-3 prostate = tested on: PC-3 prostate
BT-549 breast = tested on: BT-549 breast
HOP-62 NSCLC = tested on: HOP-62 NSCLC
RXF 393 renal = tested on: RXF 393 renal
SNB-75 CNS = tested on: SNB-75 CNS

Compound `O=C(O)CCCc1nc2c(n1Cc1ccccc1)C(=O)c1ccccc1C2=O` has a TGI (OVCAR-3 ovarian) of 74.7 µM, a TGI (HL-60(TB) leukemia) of 88.3 µM and a TGI (IGROV1 ovarian) greater than 100 µM. For the same compound, the TGI (CAKI-1 renal) was greater than 100 µM, the TGI (MOLT-4 leukemia) was greater than 100 µM and the TGI (RPMI-8226 leukemia) was 68.8 µM. The TGI (HCT-116 colon) was greater than 100 µM, the TGI (NCI-H460 lung) was greater than 100 µM and the TGI (A498 renal) was greater than 100 µM. For the same compound, the TGI (UO-31 renal) was greater than 100 µM, the TGI (MCF7 breast) was greater than 100 µM and the TGI (LOX IMVI melanoma) was greater than 100 µM. For the same compound, the TGI (NCI-H522 lung) was greater than 100 µM, the TGI (KM12 colon) was greater than 100 µM and the TGI (SF-268 CNS) was greater than 100 µM. The TGI (SF-295 CNS) was 86.1 µM, the TGI (OVCAR-4 ovarian) was 77.8 µM and the TGI (SF-539 CNS) was greater than 100 µM. For the same compound, the TGI (786-0 renal) was greater than 100 µM, the TGI (HCT-15 colon) was greater than 100 µM and the TGI (HCC-2998 colon) was greater than 100 µM. It also gave a TGI (SK-OV-3 ovarian) greater than 100 µM, a TGI (CCRF-CEM leukemia) of 43.8 µM and a TGI (MALME-3M melanoma) of 47 µM. For the same compound, the TGI (SW-620 colon) was greater than 100 µM, the TGI (MDA-N) was 67.1 µM and the TGI (OVCAR-8 ovarian) was greater than 100 µM. For the same compound, the TGI (K-562 leukemia) was greater than 100 µM, the TGI (TK-10 renal) was greater than 100 µM and the TGI (NCI-H23 lung) was greater than 100 µM. It also gave a TGI (EKVX NSCLC) greater than 100 µM, a TGI (T-47D breast) greater than 100 µM and a TGI (HS 578T breast) greater than 100 µM. For the same compound, the TGI (ACHN renal) was greater than 100 µM, the TGI (UACC-62 melanoma) was greater than 100 µM and the TGI (A549 NSCLC) was greater than 100 µM. It also gave a TGI (SN12C renal) greater than 100 µM, a TGI (U251 CNS) greater than 100 µM and a TGI (SK-MEL-2 melanoma) of 52.9 µM. It also gave a TGI (UACC-257 melanoma) of 80.1 µM, a TGI (DU-145 prostate) greater than 100 µM and a TGI (HOP-92 NSCLC) greater than 100 µM. It also gave a TGI (M14 melanoma) of 20.6 µM, a TGI (OVCAR-5 ovarian) greater than 100 µM and a TGI (SR leukemia) greater than 100 µM. For the same compound, the TGI (SNB-19 CNS) was greater than 100 µM, the TGI (SK-MEL-28 melanoma) was greater than 100 µM and the TGI (MDA-MB-231 breast) was greater than 100 µM. It also gave a TGI (COLO 205 colon) greater than 100 µM and a TGI (NCI/ADR-RES ovarian) greater than 100 µM.
Work on `COc1cc(OC)c2nc(C)c(CCCl)c(Cl)c2c1` yielded a TGI (NCI-H226 lung) greater than 100 µM, a TGI (OVCAR-3 ovarian) greater than 100 µM and a TGI (HL-60(TB) leukemia) greater than 100 µM. The TGI (IGROV1 ovarian) was greater than 100 µM, the TGI (CAKI-1 renal) was greater than 100 µM and the TGI (MDA-MB-435) was greater than 100 µM. The TGI (MOLT-4 leukemia) was greater than 100 µM, the TGI (RPMI-8226 leukemia) was greater than 100 µM and the TGI (HCT-116 colon) was greater than 100 µM. For the same compound, the TGI (HT29 colon) was greater than 100 µM, the TGI (NCI-H460 lung) was greater than 100 µM and the TGI (PC-3 prostate) was greater than 100 µM. It also gave a TGI (A498 renal) greater than 100 µM, a TGI (UO-31 renal) greater than 100 µM and a TGI (MCF7 breast) greater than 100 µM. The TGI (LOX IMVI melanoma) was greater than 100 µM, the TGI (NCI-H522 lung) was greater than 100 µM and the TGI (KM12 colon) was greater than 100 µM. The TGI (SF-268 CNS) was greater than 100 µM, the TGI (SF-295 CNS) was greater than 100 µM and the TGI (OVCAR-4 ovarian) was greater than 100 µM. The TGI (SF-539 CNS) was greater than 100 µM, the TGI (BT-549 breast) was greater than 100 µM and the TGI (786-0 renal) was greater than 100 µM. The TGI (HCT-15 colon) was greater than 100 µM, the TGI (HCC-2998 colon) was greater than 100 µM and the TGI (HOP-62 NSCLC) was greater than 100 µM. The TGI (SK-OV-3 ovarian) was greater than 100 µM, the TGI (RXF 393 renal) was greater than 100 µM and the TGI (CCRF-CEM leukemia) was greater than 100 µM. It also gave a TGI (MALME-3M melanoma) greater than 100 µM, a TGI (SW-620 colon) greater than 100 µM and a TGI (MDA-N) greater than 100 µM. For the same compound, the TGI (OVCAR-8 ovarian) was greater than 100 µM, the TGI (K-562 leukemia) was greater than 100 µM and the TGI (TK-10 renal) was greater than 100 µM. For the same compound, the TGI (NCI-H23 lung) was greater than 100 µM, the TGI (EKVX NSCLC) was greater than 100 µM and the TGI (HS 578T breast) was greater than 100 µM. For the same compound, the TGI (SNB-75 CNS) was greater than 100 µM, the TGI (ACHN renal) was greater than 100 µM and the TGI (UACC-62 melanoma) was greater than 100 µM. For the same compound, the TGI (A549 NSCLC) was greater than 100 µM, the TGI (SN12C renal) was greater than 100 µM and the TGI (U251 CNS) was greater than 100 µM. The TGI (SK-MEL-2 melanoma) was greater than 100 µM, the TGI (UACC-257 melanoma) was greater than 100 µM and the TGI (DU-145 prostate) was greater than 100 µM. For the same compound, the TGI (M14 melanoma) was greater than 100 µM, the TGI (OVCAR-5 ovarian) was greater than 100 µM and the TGI (SR leukemia) was greater than 100 µM. It also gave a TGI (SNB-19 CNS) greater than 100 µM, a TGI (SK-MEL-28 melanoma) greater than 100 µM and a TGI (MDA-MB-231 breast) greater than 100 µM. For the same compound, the TGI (COLO 205 colon) was greater than 100 µM and the TGI (NCI/ADR-RES ovarian) was greater than 100 µM.

Reference: PubChem BioAssay (NCI)
